Experimental data from US8859625B2, “Methods to prepare penta-1,4-dien-3-ones and substituted cyclohexanones and derivatives with antitumoral and antiparasitic properties, the compounds and their uses” (Universidade Bandeirante de Sao Paulo-Academia, Paulista …, priority 2006, dated 2014).
≈ marks a conversion by molar mass, not a printed value.

How the values were obtained:
[1] = test system: peritoneal normal macrophages; assay: Cytotoxic effect on peritoneal normal macrophages by the MTT method; assay type: cell-based, Balb-C mice; settings: Mus musculus, Macrophage, diluted in Miglyol 810, 24 hours
Method: Cytotoxic Effect of HB-1 Compound on Peritoneal Normal Macrophages Assessed by the MTT Method.
Peritoneal macrophages were obtained from normal Balb-C mice through the following procedure: abdominal cavities of the animals were opened under sterile conditions under a laminar flow and exposed. A 2 mL volume of saline solution, containing 5000 U frosty heparin (Liquemine-Roche), was injected into the cavity, followed by a massage and collection of the peritoneal wash irrigation liquid, centrifuged at 2000 rpm for 10 minutes at 4° C.
The suspension was resuspended with RPMI-1640 culture medium supplemented with 10% bovine fetal serum, with the count cell number adjusted to 10^6/mL in a Neubauer chamber. Aliquots of the macrophages were cultivated on plates with 96 flat bottom wells, incubated with and without HB-1 compound diluted in Miglyol 810®. After 24 hours, the plates were submitted to the cytotoxic and antiproliferative effect assessment by the MTT calorimetric method.

[2] = test system: B16F10 melanoma; assay: Cell cycle phases by flow cytometry of melanoma dorsal tumors treated for 14 days; assay type: in vivo, C57BL/6J mice; settings: 15 mg/kg HB-1 diluted in Miglyol 810, intraperitoneal
Method: Determination of Cell Cycle Phases Through Flow Cytometry of Melanoma Dorsal Tumors Treated for 14 Days with the HB-1 Compound by the Intraperitoneal Route.
Aliquots of the tumoral cells suspensions (10^6 cells/mL) for the control group that received Miglyol 810® vehicle and of the animals treated with the HB-1 compound for 14 days by the intraperitoneal route were immediately frozen in citrate (2 mM), sucrose (25 mM), and 0.05% dimethyl sulfoxide (DMSO) buffer, kept in liquid nitrogen up to the moment of use. After sample thawing in an ice bath, the cells were incubated with 375 μL of 0.03 g/L trypsin (Sigma) for 10 minutes, at room temperature, and neutralized with 0.5 g/L trypsin inhibitor (Sigma), 0.1 g/L ribonuclease A (Sigma), and 1.2 g/L spermine (Sigma). The samples were analysed by a flow cytometer (Becton-Dickson) and the percentage of cells was evaluated for the different phases of the cell cycle, apoptosis level (Sub-G1), and DNA content in phase S, quiescent cells (G0/G1), and cells in premytosis (G2/M).

[3] = test system: promastigote forms of Leishmania (L) amazonensis (isolate LV79); assay: Promastigote proliferation in Warren medium, Neubauer chamber count; assay type: cell-based
Method: Compounds are solubilized with dimethyl sulfoxide (DMSO) to produce a stock solution from which samples with different concentrations are obtained, by adding the culture medium in sufficient volume as required to attain the first desired concentration with the other concentrations being obtained by serial dilution of this first one, at ratio 2. The cultures are incubated at 22° C. or 34° C. for promastigotes and amastigotes, respectively.
As a positive control for parasite viability evaluation, only culture medium and parasite, without any other addition, were used. As toxicity control for the solvent present in compound composition, parasite forms were incubated with DMSO diluted in culture medium.
To quantify the promastigotes, Neubauer chambers are used and the cultures are quantified every 24 hours throughout the incubation period scheduled for each experiment. The samples are prepared from an initial dilution of 20 μL of the culture into 180 μL of the saline solution formulated (PBS+2% formaldehyde) to obtain a 1/10 dilution. Whenever necessary, serial dilutions may be performed from the first dilution. For all experiments, parasite forms should be incubated with several HB-1 concentrations, its respective controls with DMSO (we should have in mind that the initial HB-1 stock solution was prepared with DMSO and that its toxicity in relation to the parasite forms have to be assessed) and the normal culture, without any component additioned to the medium. Countings are performed as duplicates, by two different people and the final result is expressed as the arithmetic average from the two countings. The same procedure is employed to quantify the amastigote forms.
Promastigote forms of Leishmania (L) amazonensis (isolate LV79, 8th passage for the culture medium, day 7 of culture, stationary phase) are incubated in a proportion of 10^6 promastigotes/mL in Warren medium, 3.0 mL final volume, in the presence of different concentrations of HB-1 and of the respective controls in equivalent volume of DMSO and culture medium, as positive control for proliferation and viability. The effect of HB-1 on the promastigotes of Leishmania amazonensis cultivated in Warren medium is shown in the next Table and FIG. 33.

SMILES: COc1cc(C=CC(=O)C=Cc2ccc(O)c(OC)c2)ccc1O [HB-1, 1,5-Bis-(4-hydroxy-3-methoxy-phenyl)-penta-1,4-dien-3-one]
- IC50 [1]: 16.9 mg/L (≈ 51.8 µM)
- tumoral cell population in the G0/G1 phase of the cell cycle [2]: significantly reduces
- N^o. of promastigotes/mL (×10^6) ([3]; HB-1 3.12 μg/mL, 24 hours, Warren medium): 3.0 ×10^6 promastigotes/mL
- N^o. of promastigotes/mL (×10^6) ([3]; HB-1 3.12 μg/mL, 48 hours, Warren medium): 5.95 ×10^6 promastigotes/mL
- N^o. of promastigotes/mL (×10^6) ([3]; HB-1 3.12 μg/mL, 72 hours, Warren medium): 10 ×10^6 promastigotes/mL
- N^o. of promastigotes/mL (×10^6) ([3]; HB-1 3.12 μg/mL, 96 hours, Warren medium): 11 ×10^6 promastigotes/mL
- N^o. of promastigotes/mL (×10^6) ([3]; HB-1 3.12 μg/mL, 120 hours, Warren medium): 17 ×10^6 promastigotes/mL
- N^o. of promastigotes/mL (×10^6) ([3]; HB-1 6.25 μg/mL, 24 hours, Warren medium): 2.5 ×10^6 promastigotes/mL
- N^o. of promastigotes/mL (×10^6) ([3]; HB-1 6.25 μg/mL, 48 hours, Warren medium): 3.95 ×10^6 promastigotes/mL
- N^o. of promastigotes/mL (×10^6) ([3]; HB-1 6.25 μg/mL, 72 hours, Warren medium): 7.15 ×10^6 promastigotes/mL
- N^o. of promastigotes/mL (×10^6) ([3]; HB-1 6.25 μg/mL, 96 hours, Warren medium): 13.0 ×10^6 promastigotes/mL
- N^o. of promastigotes/mL (×10^6) ([3]; HB-1 6.25 μg/mL, 120 hours, Warren medium): 18.6 ×10^6 promastigotes/mL
- effect on promastigotes in words ([3]; HB-1 12.5 μg/mL to 3.12 μg/mL, Warren medium): sub-lethal
- N^o. of promastigotes/mL (×10^6) ([3]; HB-1 12.5 μg/mL, 24 hours, Warren medium): 2.55 ×10^6 promastigotes/mL
- N^o. of promastigotes/mL (×10^6) ([3]; HB-1 12.5 μg/mL, 48 hours, Warren medium): 2.25 ×10^6 promastigotes/mL
- N^o. of promastigotes/mL (×10^6) ([3]; HB-1 12.5 μg/mL, 72 hours, Warren medium): 3.9 ×10^6 promastigotes/mL
- N^o. of promastigotes/mL (×10^6) ([3]; HB-1 12.5 μg/mL, 96 hours, Warren medium): 5.9 ×10^6 promastigotes/mL
- N^o. of promastigotes/mL (×10^6) ([3]; HB-1 12.5 μg/mL, 120 hours, Warren medium): 18.3 ×10^6 promastigotes/mL
- N^o. of promastigotes/mL (×10^6) ([3]; HB-1 25 μg/mL, 24 hours, Warren medium): 3.25 ×10^6 promastigotes/mL
- N^o. of promastigotes/mL (×10^6) ([3]; HB-1 25 μg/mL, 48 hours, Warren medium): 1.8 ×10^6 promastigotes/mL
- N^o. of promastigotes/mL (×10^6) ([3]; HB-1 25 μg/mL, 72 hours, Warren medium): 0.4 ×10^6 promastigotes/mL
- N^o. of promastigotes/mL (×10^6) ([3]; HB-1 25 μg/mL, 96 hours, Warren medium): 0.1 ×10^6 promastigotes/mL
- N^o. of promastigotes/mL (×10^6) ([3]; HB-1 25 μg/mL, 120 hours, Warren medium): 0 ×10^6 promastigotes/mL
- time of culture to 100% mortality ([3]; HB-1 25 μg/mL, Warren medium): 120 h
- N^o. of promastigotes/mL (×10^6) ([3]; HB-1 50 μg/mL, 24 hours, Warren medium): 2.1 ×10^6 promastigotes/mL
- N^o. of promastigotes/mL (×10^6) ([3]; HB-1 50 μg/mL, 48 hours, Warren medium): 0.4 ×10^6 promastigotes/mL
- N^o. of promastigotes/mL (×10^6) ([3]; HB-1 50 μg/mL, 72 hours, Warren medium): 0.1 ×10^6 promastigotes/mL
- N^o. of promastigotes/mL (×10^6) ([3]; HB-1 50 μg/mL, 96 hours, Warren medium): 0 ×10^6 promastigotes/mL
- N^o. of promastigotes/mL (×10^6) ([3]; HB-1 50 μg/mL, 120 hours, Warren medium): 0 ×10^6 promastigotes/mL
- time of culture to 100% mortality ([3]; HB-1 50 μg/mL, Warren medium): 96 h
- N^o. of promastigotes/mL (×10^6) ([3]; HB-1 100 μg/mL, 24 hours, Warren medium): 1.15 ×10^6 promastigotes/mL
- N^o. of promastigotes/mL (×10^6) ([3]; HB-1 100 μg/mL, 48 hours, Warren medium): 0.2 ×10^6 promastigotes/mL
- N^o. of promastigotes/mL (×10^6) ([3]; HB-1 100 μg/mL, 72 hours, Warren medium): 0 ×10^6 promastigotes/mL
- N^o. of promastigotes/mL (×10^6) ([3]; HB-1 100 μg/mL, 96 hours, Warren medium): 0 ×10^6 promastigotes/mL
- N^o. of promastigotes/mL (×10^6) ([3]; HB-1 100 μg/mL, 120 hours, Warren medium): 0 ×10^6 promastigotes/mL
- time of culture to 100% mortality ([3]; HB-1 100 μg/mL, Warren medium): 72 h
- inhibition at 25 µg/mL ([3]; Leishmania, 72 h, read-out: inhibition of parasite proliferation): 81%
- inhibition at 50 µg/mL ([3]; Leishmania, HB-1 50 μg/mL, after 72 hours, Warren medium, read-out: inhibition of parasite proliferation): 95.8%
- inhibition at 100 µg/mL ([3]; Leishmania, HB-1 100 μg/mL, after 72 hours, Warren medium, read-out: inhibition of parasite proliferation): 100%
